Results taken from paper PMC12022103 (Scientific Reports, 2025).
≈ marks a conversion by molar mass, not a printed value. Non-standard residues stand in square brackets, D forms with d. Residues, ends and D or L forms follow the SMILES beside them. No end group written: not given here. AEEA = NCCOCCOCC(=O)O

Legend:
[1] = system: A. baumannii ATCC 17978; assay: Minimum bactericidal concentration (MBC); format: cell-based; settings: 5 µL from MIC wells plated on MH II agar, 37 °C overnight, no visible colonies, triplicate, highest number reported
Method: (§1) The panel of bacterial reference strains used in this work for assessment of synthetic peptide activity originated from the American Type Culture Collection (ATCC) and was obtained from the Diagnostic section at the Department of Microbiology, Oslo University Hospital. The strains used were as follows: E. coli ATCC 25922, K. pneumoniae ATCC 13883, A. baumannii ATCC 17978, S. aureus ATCC 29213, and E. faecalis ATCC 29212.
(§2) Bacterial strains were plated on cation-adjusted Mueller-Hinton (MH II) agar plates and incubated at 37 °C overnight. The day after single colonies were picked and resuspended in sterile-filtered saline (0.9%). The OD of each bacterial suspension was adjusted to McFarland standard 0.5 using a spectrophotometer (UV-1800, Shimadzu), and the suspension further diluted 1:100 in MH II broth, corresponding to 10^6 colony forming units (CFU) per mL. The inoculum suspension was used for MIC, MBC, time-kill and protease stability assessments as described below. To ensure correct inoculum sizes, 10 µL of the bacterial suspensions were diluted 2000-fold in sterile-filtered saline (0.9%) and 100 µL plated onto MH II agar plates. After overnight incubation at 37 °C, colonies were counted. If found to be outside the acceptable number (20–80 colonies per plate corresponding to ∼10^6 CFU/mL), results from further analyses were discarded.
(§3) In order to assess the minimum bactericidal concentration (MBC) of peptides, 5 µL from each well of the 96-well plate used for MIC analysis was plated onto MH II agar and incubated at 37 °C overnight. […] The experiments were performed in triplicate. Two-fold variations in MIC values were often observed between replicates.

[2] = system: K. pneumoniae ATCC 13883; assay: Minimum bactericidal concentration (MBC); format: cell-based; settings: 5 µL from MIC wells plated on MH II agar, 37 °C overnight, no visible colonies, triplicate, highest number reported
Method: as §1, §2, §3

[3] = system: E. faecalis ATCC 29212; assay: Minimum bactericidal concentration (MBC); format: cell-based; settings: 5 µL from MIC wells plated on MH II agar, 37 °C overnight, no visible colonies, triplicate, highest number reported
Method: as §1, §2, §3

[4] = system: S. aureus ATCC 29213; assay: Minimum bactericidal concentration (MBC); format: cell-based; settings: 5 µL from MIC wells plated on MH II agar, 37 °C overnight, no visible colonies, triplicate, highest number reported
Method: as §1, §2, §3

[5] = system: P. aeruginosa; assay: Minimum inhibitory concentration (MIC), broth dilution; format: cell-based; settings: MH II broth, 5 × 10^5 CFU/mL, 18–24 h, 37 °C, OD600; triplicate, highest number reported; detection limit <0.5 and >128 µM
[6] = system: E. coli ATCC 25922; assay: as above; format: cell-based, Escherichia coli; settings: E. coli ATCC 25922; two-fold dilution in MH II broth, 5 × 10^5 CFU/mL, 18–24 h, 37 °C, OD600; triplicate, highest number reported; detection limit <0.5 and >128 µM
Method: as §1, §2
(§4) The peptides were serially diluted (two-fold) directly in 96-well plates (Greiner, MICROPLATE, 96 WELL, PP, U-BOTTOM, NATURAL, 650261) containing MH II broth, corresponding to concentrations in the range 256–0.5 µM. An equal volume of bacterial suspension was added to each well, resulting in a final inoculum of 5 × 10^5 CFU/mL and final peptide concentrations of 128–0.25 µM. The 96-well plates were incubated for 18–24 h at 37 °C, after which the OD of each well was measured at 600 nm in a plate reader (Victor Nivo, Perkin-Elmer). The minimum inhibitory concentration (MIC) was estimated as the lowest concentration of peptide that produced OD600 measurements similar to the control wells containing no bacteria. The experiments were performed in triplicate. Two-fold variations in MIC values were often observed between replicates.

[7] = system: E. coli ATCC 25922; assay: Minimum bactericidal concentration (MBC); format: cell-based, Escherichia coli; settings: 5 µL from MIC wells plated on MH II agar, 37 °C overnight, no visible colonies, triplicate, highest number reported, detection limit <0.5 and >128 µM
Method: as §1, §2, §3

[8] = system: A. baumannii ATCC 17978; assay: Minimum inhibitory concentration (MIC), broth dilution; format: cell-based; settings: MH II broth, 5 × 10^5 CFU/mL, 18–24 h, 37 °C, OD600, triplicate, highest number reported, detection limit <0.5 and >128 µM
Method: as §1, §2, §4

[9] = system: K. pneumoniae ATCC 13883; assay: as above; format: cell-based; settings: K. pneumoniae ATCC 13883; MH II broth, 5 × 10^5 CFU/mL, 18–24 h, 37 °C, OD600; triplicate, highest number reported; detection limit <0.5 and >128 µM
Method: as §1, §2, §4

[10] = system: E. faecalis ATCC 29212; assay: as above; format: cell-based; settings: E. faecalis ATCC 29212; MH II broth, 5 × 10^5 CFU/mL, 18–24 h, 37 °C, OD600; triplicate, highest number reported; detection limit <0.5 and >128 µM
Method: as §1, §2, §4

[11] = system: S. aureus ATCC 29213; assay: as above; format: cell-based; settings: S. aureus ATCC 29213; MH II broth, 5 × 10^5 CFU/mL, 18–24 h, 37 °C, OD600; triplicate, highest number reported; detection limit <0.5 and >128 µM
Method: as §1, §2, §4

[12] = system: P. aeruginosa; assay: Minimum bactericidal concentration (MBC); format: cell-based; settings: 5 µL from MIC wells plated on MH II agar, 37 °C overnight, no visible colonies; triplicate, highest number reported

Row | Compound | MBC, A. baumannii [1] [µM] | MBC, K. pneumoniae [2] [µM] | MBC, E. faecalis [3] [µM] | MBC, S. aureus [4] [µM] | MIC, P. aeruginosa [5] [µM] | MIC, E. coli [6] [µM] | MBC, E. coli [7] [µM] | MIC, A. baumannii [8] [µM] | MIC, K. pneumoniae [9] [µM] | MIC, E. faecalis [10] [µM] | MIC, S. aureus [11] [µM] | MBC, P. aeruginosa [12] [µM]
1 | CC[C@H](C)[C@H](NC(=O)[C@H](CC(C)C)NC(=O)[C@H](CCC(N)=O)NC(=O)[C@H](CC(C)C)NC(=O)[C@@H](NC(=O)[C@H](C)NC(=O)COCCOCCNC(=O)[C@H](CCCCN)NC(=O)[C@H](CCCCN)NC(=O)[C@H](CCCCN)NC(=O)[C@H](CCCCN)NC(=O)[C@H](CCCCN)NC(=O)[C@@H](N)C(C)C)C(C)C)C(=O)N[C@@H](CC(C)C)C(=O)N[C@@H](CCCCN)C(=O)N[C@@H](Cc1ccccc1)C(=O)N[C@@H](CC(C)C)C(N)=O [3c-N10] (H-VKKKKK[AEEA]AVLQLILKFL-NH2) | 16 (≈ 32.7 µg/mL) | 16 (≈ 32.7 µg/mL) | 16 (≈ 32.7 µg/mL) | 32 (≈ 65.3 µg/mL) | 64 (≈ 131 µg/mL) | 16 (≈ 32.7 µg/mL) | 16 (≈ 32.7 µg/mL) | 16 (≈ 32.7 µg/mL) | 16 (≈ 32.7 µg/mL) | 16 (≈ 32.7 µg/mL) | 32 (≈ 65.3 µg/mL) | 32 (≈ 65.3 µg/mL)
2 | CC[C@H](C)[C@H](NC(=O)[C@H](CC(C)C)NC(=O)[C@H](CCC(N)=O)NC(=O)[C@H](CC(C)C)NC(=O)[C@@H](NC(=O)[C@H](C)NC(=O)[C@H](CCCCN)NC(=O)[C@H](CCCCN)NC(=O)[C@H](CCCCN)NC(=O)COCCOCCNC(=O)[C@H](CCCCN)NC(=O)[C@H](CCCCN)NC(=O)[C@@H](N)C(C)C)C(C)C)C(=O)N[C@@H](CC(C)C)C(=O)N[C@@H](CCCCN)C(=O)N[C@@H](Cc1ccccc1)C(=O)N[C@@H](CC(C)C)C(N)=O [3d-N10] (H-VKK[AEEA]KKKAVLQLILKFL-NH2) | 16 (≈ 32.7 µg/mL) | 32 (≈ 65.3 µg/mL) | 32 (≈ 65.3 µg/mL) | 32 (≈ 65.3 µg/mL) | 64 (≈ 131 µg/mL) | 16 (≈ 32.7 µg/mL) | 16 (≈ 32.7 µg/mL) | 16 (≈ 32.7 µg/mL) | 32 (≈ 65.3 µg/mL) | 32 (≈ 65.3 µg/mL) | 32 (≈ 65.3 µg/mL) | 64 (≈ 131 µg/mL)
3 | CC[C@H](C)[C@H](NC(=O)[C@H](CC(C)C)NC(=O)[C@H](CCC(N)=O)NC(=O)[C@H](CC(C)C)NC(=O)[C@@H](NC(=O)[C@H](C)NC(=O)[C@H](CCCCN)NC(=O)[C@H](CCCCN)NC(=O)[C@H](CCCCN)NC(=O)[C@H](CCCCN)NC(=O)[C@H](CCCCN)NC(=O)[C@@H](N)C(C)C)C(C)C)C(=O)NCCOCCOCC(=O)N[C@@H](CC(C)C)C(=O)N[C@@H](CCCCN)C(=O)N[C@@H](Cc1ccccc1)C(=O)N[C@@H](CC(C)C)C(N)=O [3e-N10] (H-VKKKKKAVLQLI[AEEA]LKFL-NH2) | 64 (≈ 131 µg/mL) | 128 (≈ 261 µg/mL) | > 128 | > 128 | 32 (≈ 65.3 µg/mL) | 128 (≈ 261 µg/mL) | 128 (≈ 261 µg/mL) | 32 (≈ 65.3 µg/mL) | 128 (≈ 261 µg/mL) | > 128 | > 128 | > 128
4 | KKKKAVLQLILLFL-NH2 [2a-N12] | > 128 | > 128 | > 128 | > 128 | > 128 | > 128 | > 128 | > 128 | > 128 | > 128 | > 128 | > 128
5 | KKKKFVLKLILKLL-NH2 [2e-N12] | > 128 | > 128 | > 128 | > 128 | > 128 | > 128 | > 128 | > 128 | > 128 | > 128 | > 128 | > 128
6 | KKKKFVLQLILKLL-NH2 [2f-N12] | > 128 | > 128 | > 128 | > 128 | > 128 | > 128 | > 128 | > 128 | > 128 | > 128 | > 128 | > 128
7 | KKKKIAVLQLILLFL-NH2 [2b-N12] | > 128 | > 128 | > 128 | > 128 | > 128 | > 128 | > 128 | > 128 | > 128 | > 128 | > 128 | > 128
8 | KKKKIIAVLQLILLFL-NH2 [2c-N12] | > 128 | > 128 | > 128 | > 128 | > 128 | > 128 | > 128 | > 128 | > 128 | > 128 | > 128 | > 128
9 | KKKKIIIAVLQLILLFL-NH2 [2d-N12] | > 128 | > 128 | > 128 | > 128 | > 128 | > 128 | > 128 | > 128 | > 128 | > 128 | > 128 | > 128
10 | KKKKKKFVLKLILKLL-NH2 [2g-N12] | 128 | 128 | 128 | 128 | 128 | 128 | 128 | 128 | 64 | 64 | 128 | 128
11 | KKKKKKFVLQLILKLL-NH2 [2h-N12] | > 128 | > 128 | > 128 | > 128 | > 128 | > 128 | > 128 | > 128 | > 128 | > 128 | > 128 | > 128
